Target: T1, IRAK4 (Homo sapiens, UniProt Q9NWZ3)
T1 construct: endogenous in cells; host or cells: OCI-LY10
T1 sequence (Q9NWZ3 1-460): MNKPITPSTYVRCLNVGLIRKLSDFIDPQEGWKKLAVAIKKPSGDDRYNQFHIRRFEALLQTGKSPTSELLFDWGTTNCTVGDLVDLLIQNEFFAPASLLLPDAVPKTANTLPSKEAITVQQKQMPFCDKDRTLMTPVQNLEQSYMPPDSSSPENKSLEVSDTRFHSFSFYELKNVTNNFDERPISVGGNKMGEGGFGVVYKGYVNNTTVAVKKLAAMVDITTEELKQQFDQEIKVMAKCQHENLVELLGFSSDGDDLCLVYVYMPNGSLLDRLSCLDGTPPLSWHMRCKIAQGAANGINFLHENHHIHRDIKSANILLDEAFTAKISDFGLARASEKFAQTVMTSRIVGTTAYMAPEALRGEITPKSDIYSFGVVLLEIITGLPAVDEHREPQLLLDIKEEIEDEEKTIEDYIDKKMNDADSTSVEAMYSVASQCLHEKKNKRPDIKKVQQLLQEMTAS
Test: IRAK4 MSD Degradation in OCI-LY10
Format: cell-based
Conditions: OCI-LY10 cells, Meso Scale Discovery, incubated 4 to 24 hours
Protocol: Degradation of IRAK4 in OCI-LY10 was quantitatively measured using Meso Scale Discovery technology. OCI-LY10 cells were seeded in 96-well plates (Corning 3799) with a density of 300,000 cells per well in 100 μL fresh media. Compounds were then added to the assay plates with a final top concentration of 1 to 10 μM in a 1:3 dilution series with total of 8 doses. The assay plates were then incubated for 4 to 24 hours at 37° C. under 5% CO2. The assay plates were then centrifuged for 5 minutes and the cell pellets were treated with 100 μL/well RIPA lysis buffer (Boston BioProducts BP-115D) with proteinase inhibitors. To prepare MSD assay plates (Meso Scale Discovery Catalog number L15XA-3), the plates were coated with 2 μg/mL capture antibody (mouse Anti-IRAK4 antibody [2H9], ab119942) in PBS, at 40 μL/well. The plates were then incubated overnight at 4° C., washed 3 times with 150 μL/well TBST buffer (Cell Signaling Technology, Catalog number 9997S) and blocked with 150 μL/well blocking buffer (Meso Scale Discovery Catalog number R93BA-4). Cell lysates were then added to MSD assay plates and the plates were incubated at room temperature for 1 hour. The plates were then washed 3 times with 150 μL/well TBST buffer and […] primary detection antibody (rabbit Anti-IRAK4 antibody [Y279], from Abcam. Catalog number ab32511, 1 μg/mL). The assay plates were then incubated at room temperature for 1 hour, washed 3 times with 150 μL/well TBST buffer and 254/well secondary detection antibody, SULFO-TAG anti-rabbit antibody were added (anti rabbit antibody from Meso Scale Discovery, Catalog number R32AB-1, 1 μg/mL). The assay plates were then incubated at room temperature for 1 hour, washed 3 times with 150 μL/well TBST buffer, and 150 μL/well MSD reading buffer (Meso Scale Discovery catalog number R92TC-2) was added. The plates were then analyzed by a MSD reader (Meso Scale Discovery, Model Quick Plex SQ 120). The data was then analyzed by software Prism 7.0 from GraphPad and the dose-depended IRAK4 degradation were fit using a three-parameter logistic equation to calculate DC50.
The letter codes for IRAK4 DC50 include: A (<0.01 μM); B (0.01-0.05 μM); C (0.05-0.1 μM); D (0.1-0.2 μM); and E (>0.2 μM).

SMILES	DC50
COc1cc2nn([C@H]3CC[C@H](CN4C5CC4CN(c4cccc6c4n(C)c(=O)n6C4CCC(=O)NC4=O)C5)CC3)cc2cc1NC(=O)c1cncc(C#N)c1 (some centres unmarked) [I-258]	> 200 nM
COc1cc2nn([C@H]3CC[C@H](CN4CCC(c5c(Cl)ccc6c5n(C)c(=O)n6C5CCC(=O)NC5=O)CC4)CC3)cc2cc1NC(=O)c1cccc(C(F)(F)F)n1 (some centres unmarked) [I-37]	< 10 nM
Cn1c(=O)n(C2CCC(=O)NC2=O)c2cccc(C3CCN(C[C@H]4C[C@@H](n5cc6cc(NC(=O)c7cccc(C(F)(F)F)n7)c(F)cc6n5)C4)CC3)c21 (some centres unmarked) [I-18]	> 200 nM
Cn1c(=O)n(C2CCC(=O)NC2=O)c2cc(F)cc(C3CCN(C[C@H]4CC[C@H](n5cc6cc(NC(=O)c7cccc(C(F)(F)F)n7)c(F)cc6n5)CC4)CC3)c21 (some centres unmarked) [I-26]	< 10 nM
CC(=O)c1cc2nn([C@H]3CC[C@H](CN4CCN(c5cccc6c5n(C)c(=O)n6C5CCC(=O)NC5=O)CC4)CC3)cc2cc1NC(=O)c1cccc(C(F)(F)F)n1 (some centres unmarked) [I-412]	< 10 nM
CC(C)Nc1c(C(=O)N[C@H]2CC[C@H](CN3CCC(c4cccc5c4n(C)c(=O)n5C4CCC(=O)NC4=O)CC3)CC2)cnc2sc(-c3cncs3)cc12 (some centres unmarked) [I-417]	< 10 nM
COc1cc2nn([C@H]3CC[C@H](CN4CCN(c5c(OC)ccc6c5n(C)c(=O)n6C5CCC(=O)NC5=O)CC4)CC3)cc2cc1NC(=O)c1cccc(C(F)(F)F)n1 (some centres unmarked) [I-364]	< 10 nM
COc1cc2nn([C@H]3CC[C@H](CN4CCN(c5c(OC)ccc6c(N7CCC(=O)NC7=O)cncc56)CC4)CC3)cc2cc1NC(=O)c1cccc(C(F)(F)F)n1 [I-332]	10 to 50 nM
CCOc1cc2nn([C@H]3CC[C@H](CN4CCN(c5cccc6c5n(C)c(=O)n6C5CCC(=O)NC5=O)CC4)CC3)cc2cc1NC(=O)c1cccc(C(F)(F)F)n1 (some centres unmarked) [I-294]	10 to 50 nM
Cn1c(=O)n(C2CCC(=O)NC2=O)c2cccc(N3CCN(C[C@H]4CC[C@H](n5cc6cc(NC(=O)c7cccc(C(F)(F)F)n7)c(N7C[C@H]8C[C@@H]7CO8)cc6n5)CC4)CC3)c21 (some centres unmarked) [I-384]	< 10 nM
COc1cc2nn([C@H]3CC[C@H](CN4CCN(c5cccc6c(N7CCC(=O)NC7=O)cncc56)CC4)CC3)cc2cc1NC(=O)c1cccc(C(F)(F)F)n1 [I-211]	< 10 nM
COc1cc2nn([C@H]3CC[C@H](CN4[C@@H]5C[C@H]4CN(c4cccc6c4n(C)c(=O)n6C4CCC(=O)NC4=O)C5)CC3)cc2cc1NC(=O)c1cccc(C(F)(F)F)n1 (some centres unmarked) [I-158]	< 10 nM
COc1cc2nn([C@H]3CC[C@H](CN4C[C@@H]5C[C@H]4CN5c4cccc5c4n(C)c(=O)n5C4CCC(=O)NC4=O)CC3)cc2cc1NC(=O)c1cccc(C(F)(F)F)n1 (some centres unmarked) [I-168]	< 10 nM

Further lines, results first:

DC50	SMILES
< 10 nM	CC(C)Nc1c(C(=O)N[C@H]2CC[C@H](CN3CCN(c4cccc5c4n(C)c(=O)n5C4CCC(=O)NC4=O)CC3)CC2)cnc2sc(-c3cncs3)cc12 (some centres unmarked) [I-416]
< 10 nM	COc1cc2nn([C@H]3CC[C@H](CN4CCC(c5ccc6c(c5Cl)n(C)c(=O)n6C5CCC(=O)NC5=O)CC4)CC3)cc2cc1NC(=O)c1cccc(C(F)(F)F)n1 (some centres unmarked) [I-177]
< 10 nM	COc1cc(NC(=O)c2cccc(C(F)(F)F)n2)cc2cn([C@H]3CC[C@H](CN4CCC(c5cccc6c(N7CCC(=O)NC7=O)cncc56)CC4)CC3)nc12 [I-221]
< 10 nM	COc1cc2nn([C@H]3C[C@H](CN4CCC(c5c(OC)ccc6c5n(C)c(=O)n6C5CCC(=O)NC5=O)CC4)C3)cc2cc1NC(=O)c1cccc(C(F)(F)F)n1 (some centres unmarked) [I-138]
< 10 nM	Cc1cccc(C(=O)Nc2cc3sc([C@H]4CC[C@H](C(=O)N5CCN(CCCNc6cccc7c6C(=O)N(C6CCC(=O)NC6=O)C7=O)CC5)CC4)nc3cc2C(C)(C)O)n1 (some centres unmarked) [I-465]
< 10 nM	CC(C)Nc1cc(-n2ccc3cc(C#N)cnc32)ncc1C(=O)N[C@H]1CC[C@H](CN2CCN(c3cccc4c(N5CCC(=O)NC5=O)cncc34)CC2)CC1 [I-372]
< 10 nM	Cn1c(=O)n(C2CCC(=O)NC2=O)c2cccc(C3CCN(C[C@H]4CC[C@H](n5cc6cc(NC(=O)c7cnn8cccnc78)c(F)cc6n5)CC4)CC3)c21 (some centres unmarked) [I-63]

Source: patent publication US12150995B2, “IRAK degraders and uses thereof” (Kymera Therapeutics, Inc., priority 2020, dated 2024)
